The record followed here is US12679878B2, “CRF2 receptor agonists and their use in therapy” (SANOFI, priority 2020, dated 2026).

A short description of data set [1]: Solubility in buffer systems by UPLC-UV (Example 13). The data set is classed as physicochemical. The method, boiled down:
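Quantitation used UV peak area from UPLC of the 1:10-diluted supernatant, set against a reference-compound standard curve with extinction coefficients adjusted for amino acid sequence.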

Data set [2] concerns the target T1, CRF1R receptor (Homo sapiens, UniProt P34998).
T1 construct: host or cells: CHO-K1 clone 2
T1 sequence (P34998 24-415): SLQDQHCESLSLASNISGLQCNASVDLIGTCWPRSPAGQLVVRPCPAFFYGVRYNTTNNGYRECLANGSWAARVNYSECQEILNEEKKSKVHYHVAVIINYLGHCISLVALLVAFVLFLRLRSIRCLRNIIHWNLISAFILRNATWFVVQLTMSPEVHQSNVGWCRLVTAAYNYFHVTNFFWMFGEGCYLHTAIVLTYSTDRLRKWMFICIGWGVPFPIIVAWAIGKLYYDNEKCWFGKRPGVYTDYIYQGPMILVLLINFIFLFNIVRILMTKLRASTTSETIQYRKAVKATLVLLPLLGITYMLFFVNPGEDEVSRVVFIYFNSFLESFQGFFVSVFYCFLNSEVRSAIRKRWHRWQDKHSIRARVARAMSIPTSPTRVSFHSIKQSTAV
Put plainly: cAMP activity at anti-target CRF1R, CRF1R-overexpression CHO cell line (Example 9). The format is cell-based. The method, boiled down: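 Using thawed CRF1R-overexpressing CHO cells at 2000 per well, compound is applied for 30 min at RT in HBSS/HEPES buffer with IBMX. Cellular cAMP content is determined via HTRF, and percent activity is calculated against 1000 nM UCN2 defined as 100%.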

A short description of data set [3]: Physical stability, Thioflavin T fibrillation assay (Example 14). The data set is classed as physicochemical. Conditions: 3 mg/ml, 37° C. shaking. In short, it runs like this:
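Fibrillation tendency was judged from lag time and rise in Thioflavin T fluorescence, measured every 20 minutes over eight replicates per sample. Peptides at 3 mg/ml final were held at 37° C under cycles of 10 s shaking (960 rpm) and 50 s rest.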

The nature of data set [4]: Chemical stability, purity loss by UPLC-UV after 28 days at 40° C. vs 5° C., pH 4.5 acetate buffer (Example 12). The data set is classed as physicochemical. As to conditions: 28 days 40° C. vs 5° C.; pH 4.5, 20 mM acetate buffer; 300 μM. As for the experimental part: The chemical stability of the compounds was assessed by storing the compounds under various conditions and then determining the loss of purity by UPLC-UV.
Prior to measuring the chemical stability of a batch of test compound, the purity of the compound was determined through UPLC/MS. For stability testing the target concentration was 300 μM pure compound. Therefore, solutions from solid samples were prepared in a pH 4.5, 20 mM acetate buffer system with a concentration of 300 μM compound based on the previously determined % purity:
At the starting point, UPLC-UV was performed by injection of 2 μl of the undiluted sample. Aliquots were then stored for 28 days at temperatures of 5 and 40° C. […] Then 2 μl samples of the undiluted supernatant were analysed with UPLC-UV. The chemical stability was calculated by the equation: [(purity after 28 days at 5° C.)−(purity after 28 days at 40° C.)]/(purity after 28 days at 5° C.)]×100%. The purity was calculated as: [(peak area compound)/(total peak area)]×100%.

In data set [5] the target is T2, human CRF2α receptor (Homo sapiens, UniProt Q13324).
T2 construct: expressed in transfected cells; host or cells: TeloHEAC
T2 sequence (Q13324 1-411): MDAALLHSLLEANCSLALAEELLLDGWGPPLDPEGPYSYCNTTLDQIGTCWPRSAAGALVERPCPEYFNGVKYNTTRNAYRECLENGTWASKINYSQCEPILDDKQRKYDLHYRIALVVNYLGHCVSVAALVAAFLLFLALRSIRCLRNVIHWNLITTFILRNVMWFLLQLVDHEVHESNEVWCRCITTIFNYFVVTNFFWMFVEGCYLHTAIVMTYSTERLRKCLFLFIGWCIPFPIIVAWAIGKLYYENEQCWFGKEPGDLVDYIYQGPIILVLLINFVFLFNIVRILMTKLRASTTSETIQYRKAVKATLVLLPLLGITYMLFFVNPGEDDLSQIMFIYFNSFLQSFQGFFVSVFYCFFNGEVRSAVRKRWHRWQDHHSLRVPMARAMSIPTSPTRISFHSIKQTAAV
In words: cAMP agonism at human CRF2 α receptor in TeloHEAC cells (Example 7). The format is cell-based. As to conditions: cAMP HTRF, TeloHEAC cells stably expressing human CRF2 α. The method, boiled down:
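Thawed frozen stably transfected cells in HBSS/20 mM HEPES (0% or 0.1% HSA) plus 2 mM IBMX were exposed to compound at 2000 cells/well for 30 min at room temperature. Intracellular cAMP was read by HTRF (665/620 nm ratio) after 1 h lysis; EC50 was derived with 1000 nM urocortin 2 set as 100%.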
For orientation: Time-resolved FRET reads energy transfer from a long-lived donor to a nearby acceptor.

Data set [6] concerns rat CRF2R α receptor. Put plainly: cAMP agonism at rat CRF2R α receptor in A7R5 rat aortic smooth muscle cells (Example 8). The data set is classed as cell-based. Conditions: cAMP HTRF, A7R5 rat aortic smooth muscle cell line, 0% HSA. In short, it runs like this:
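Potency (EC50) is the concentration reaching half-maximal activation, with responses scaled so that 1000 nM urocortin 2 equals 100%. Intracellular cAMP was quantified by homogeneous time-resolved fluorescence at 665/620 nm, 1 h after lysis-buffer reagents. Compound stimulation lasted 30 min at room temperature on 2000 IBMX-treated (2 mM) cells per well in HEPES-buffered HBSS.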

Setting [7] is: Buffer A: 100 mM acetate buffer, pH 4.5.
[8] abbreviates: Buffer B: 100 mM acetate buffer, pH 4.5, 2.7 mg/ml m-cresol.
The mark [9] stands for this setting: 0% HSA, read-out: EC50 [nM], 0% HSA.

Like-named read-outs stand apart in the source and are kept apart here. Starred links: 1 amine or outer side, 2 acyl side, 3 side chain; linkers in the order of their positions; H or OH if unused. Residues, ends and D or L forms follow the SMILES beside them. Groups on a side chain read outwards from the residue. *: point of attachment. C18 diacid = O=C(O)CCCCCCCCCCCCCCCCC(=O)*; γGlu = O=C(O)[C@H](CCC(=O)[*:2])N[*:1]; Palmitoyl = CCCCCCCCCCCCCCCC(=O)*; AEEA = NCCOCCOCC(=O)O Bounds are passed on as bounds.

The solubility is the dissolved amount per volume that the medium holds. The Emax is the maximal effect, on the per cent scale that the assay sets. The term EC50 denotes the midpoint of the concentration-response curve. With `CCCCCCCCCCCCCCCC(=O)N[C@@H](CCC(=O)NCCCC[C@H](NC(=O)[C@H](CC(C)C)NC(=O)CNC(=O)[C@@H](NC(=O)[C@@H]1CCCN1C(=O)[C@@H](NC(=O)[C@H](CC(=O)O)NC(=O)[C@H](CC(C)C)NC(=O)[C@H](CO)NC(=O)[C@H](CC(C)C)NC(=O)[C@@H](NC(=O)[C@@H](N)[C@@H](C)CC)C(C)C)C(C)C)[C@@H](C)CC)C(=O)N[C@@H](CCC(N)=O)C(=O)N[C@@H](CCCCN)C(=O)N[C@@H](CC(C)C)C(=O)N[C@@H](CC(C)C)C(=O)N[C@@H](CCCCN)C(=O)N[C@@H](CCC(N)=O)C(=O)N[C@@H](CCC(N)=O)C(=O)N[C@@H](CCCNC(=N)N)C(=O)N[C@@H](CCC(N)=O)C(=O)N[C@@H](CCCNC(=N)N)C(=O)N[C@@H](CCCCN)C(=O)N[C@@H](CCC(=O)O)C(=O)N[C@@H](CCCNC(=N)N)C(=O)N[C@@H](CCC(N)=O)C(=O)N[C@@H](CCC(N)=O)C(=O)N[C@@H](C)C(=O)N[C@@H](CCC(=O)O)C(=O)N[C@@H](CCCCN)C(=O)N[C@@H](CC(N)=O)C(=O)N[C@@H](C)C(=O)N[C@@H](CCCNC(=N)N)C(=O)N[C@H](C(=O)N[C@@H](CC(C)C)C(=O)N[C@@H](C)C(=O)N[C@@H](CCCNC(=N)N)C(=O)N[C@H](C(N)=O)C(C)C)[C@@H](C)CC)C(=O)O` [compound 6] (H-IVLSLDVPIGLK([γGlu-Palmitoyl])QKLLKQQRQRKERQQAEKNARILARV-NH2; N-terminus assumed), the solubility at 1 h was above 8500 µg/mL in data set [1] (pH 4.5, Solubility in Buffer B [mg/ml]) and above 8100 µg/mL in data set [1] (pH 7.4, Solubility in Buffer C [mg/ml]). Besides, the Emax in data set [2] (CRF1R-overexpression CHO cell line, read-out: Emax (%)) turned out to be 47.2%. Further, the “Increase in FI (fluorescence intensity)” value in data set [3] (setting [7]) and in data set [3] (setting [8]) was “No” throughout. Besides, the “Lag time” value in data set [3] (setting [7]) and in data set [3] (setting [8]) was above 45 h throughout. For the same molecule, the “Relative purity loss [%]” value in data set [4] was determined as 1.9%. In addition, the EC50 came out at 0.16 nM in data set [5] (setting [9]) and 0.18 nM in data set [5] (0.1% HSA, read-out: EC50 [nM], 0.1% HSA).

As for `CC[C@H](C)[C@H](N)C(=O)N[C@H](C(=O)N[C@@H](CC(C)C)C(=O)N[C@@H](CO)C(=O)N[C@@H](CC(C)C)C(=O)N[C@@H](CC(=O)O)C(=O)N[C@H](C(=O)N1CCC[C@H]1C(=O)N[C@H](C(=O)N[C@@H](CCCCN)C(=O)N[C@@H](CC(C)C)C(=O)N[C@@H](CCCCNC(=O)COCCOCCNC(=O)COCCOCCNC(=O)CC[C@H](NC(=O)CCCCCCCCCCCCCCCCC(=O)O)C(=O)O)C(=O)N[C@@H](CCC(N)=O)C(=O)N[C@H](C(=O)N[C@@H](CC(C)C)C(=O)N[C@@H](CC(C)C)C(=O)N[C@@H](CCCCN)C(=O)N[C@@H](CCC(N)=O)C(=O)N[C@@H](CCC(=O)O)C(=O)N[C@@H](CCCNC(=N)N)C(=O)N[C@@H](CCC(N)=O)C(=O)N[C@@H](CCCCN)C(=O)N[C@@H](CCCCN)C(=O)N[C@@H](CCC(N)=O)C(=O)N[C@@H](CCCNC(=N)N)C(=O)N[C@@H](CCC(N)=O)C(=O)N[C@@H](CCCCN)C(=O)N[C@@H](C)C(=O)N[C@@H](CCC(=O)O)C(=O)N[C@H](C(=O)N[C@@H](CC(N)=O)C(=O)N[C@@H](CCCCN)C(=O)N[C@@H](CCC(N)=O)C(=O)N[C@H](C(=O)N[C@@H](CC(C)C)C(=O)N[C@@H](C)C(=O)N[C@@H](CCC(N)=O)C(=O)N[C@H](C(N)=O)C(C)C)[C@@H](C)CC)[C@@H](C)O)[C@@H](C)CC)[C@@H](C)CC)C(C)C)C(C)C` [compound 77] (H-IVLSLDVPIKLK([AEEA-AEEA-γGlu-C18 diacid])QILLKQERQKKQRQKAETNKQILAQV-NH2), the solubility at 1 h in data set [1] (Buffer B: 100 mM acetate buffer, pH 4.5, 2.7 mg/ml m-cresol, target 10 mg/ml, read-out: Solubility in Buffer B) was above 8000 µg/mL; in data set [1] (Buffer C: 100 mM phosphate buffer, pH 7.4, target 10 mg/ml, read-out: Solubility in Buffer C) it was above 9000 µg/mL. The Emax in data set [2] (CHO) was 1.56%. Besides, in data set [3] (setting [8]), the “Increase in FI (fluorescence intensity)” value was “Yes”. Moreover, the “Lag time” value in data set [3] (setting [8]) was in the range of 23.0 to 29.7 h. The “Relative purity loss [%]” value in data set [4] is reported as 3.60%. Also, the half-maximal effective concentration (EC50) in data set [6] stood at 3.26 nM; in data set [5] (setting [9]), 0.33 nM.
